Key:
Format in all cases: biochemical
[1] = biological target: T1, full length Aurora-A (AA 1-403) (Homo sapiens, UniProt O14965); experiment: Aurora-A inhibition assay, standard coupled enzyme system; conditions: average Ki if more than one value determined
T1 construct: full length Aurora-A (AA 1-403)
T1 sequence (O14965 1-403): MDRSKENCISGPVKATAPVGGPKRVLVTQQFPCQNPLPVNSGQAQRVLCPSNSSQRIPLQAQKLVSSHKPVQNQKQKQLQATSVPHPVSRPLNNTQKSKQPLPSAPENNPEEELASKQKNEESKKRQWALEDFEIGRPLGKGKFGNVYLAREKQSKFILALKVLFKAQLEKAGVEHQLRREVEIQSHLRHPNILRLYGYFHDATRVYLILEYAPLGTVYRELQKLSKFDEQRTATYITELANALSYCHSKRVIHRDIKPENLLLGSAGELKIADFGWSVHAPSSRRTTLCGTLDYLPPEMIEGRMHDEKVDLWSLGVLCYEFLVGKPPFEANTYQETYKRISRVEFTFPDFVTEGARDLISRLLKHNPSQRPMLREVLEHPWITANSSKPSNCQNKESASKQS

Aurora-B = Aurora-B (Homo sapiens, UniProt Q96GD4); experiment: Aurora-B inhibition assay, radioactive assay; conditions: average Ki if more than one value determined
Aurora-B, sequence (Q96GD4 whole entry): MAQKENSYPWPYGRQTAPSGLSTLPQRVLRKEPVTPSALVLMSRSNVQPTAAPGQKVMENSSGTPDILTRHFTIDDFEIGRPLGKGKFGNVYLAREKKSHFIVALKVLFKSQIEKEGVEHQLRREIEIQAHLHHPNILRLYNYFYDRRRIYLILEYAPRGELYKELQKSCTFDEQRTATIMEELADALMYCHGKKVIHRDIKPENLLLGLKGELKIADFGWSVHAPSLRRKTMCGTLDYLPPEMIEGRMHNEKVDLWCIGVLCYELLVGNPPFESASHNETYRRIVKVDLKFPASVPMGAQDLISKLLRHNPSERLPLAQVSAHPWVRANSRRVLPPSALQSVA
Protocol: Compounds were screened for their ability to inhibit JAK3 using a standard radioactive enzyme assay. 1.5 μL/well of a DMSO stock containing serial dilutions of a compound of the present invention (concentrations ranging from 667 μM to 46 nM) was placed in a 96 well polycarbonate plate. 50 μL per well of kinase buffer (100 mM HEPES (pH 7.4), 10 mM MgCl2, 25 mM NaCl, 1 mM DTT, and 0.01% bovine serum albumin (BSA)) containing 2 μM poly(Glu)4Tyr and 10 μM ATP was also added to the plate. To initiate the reaction, 50 μL kinase buffer containing 2 nM JAK3 enzyme was added. Final ATP concentration was 5 μM [γ-^33P] ATP (200 μCi ^33P ATP/μmol ATP (Perkin Elmer, Cambridge, Mass.). After 20 minutes at room temperature (25° C.), the reaction was stopped by adding 50 μL 20% trichloroacetic acid (TCA)/0.4 mM ATP to each well. The entire content of each well was then transferred to a 96 well glass fiber filter plate using a TomTek Cell Harvester. After washing, 60 μL scintillation fluid was added and ^33P incorporation detected using a Perkin Elmer TopCount. After removing mean background values for all of the data points the data was fit using Prism software to obtain a Ki(app). Inhibition of JAK2 was measured as above except that final poly(Glu)4Tyr concentration was 15 μM and final ATP concentration was 12 μM.
Some compounds were screened for their ability to inhibit ROCK using a standard radioactive enzyme assay. Assays were carried out in a solution containing 100 mM HEPES (pH 7.5), 10 mM MgCl2, 25 mM NaCl, 2 mM DTT, and 1.5% DMSO. Final substrate concentrations in the assay were 13 μM [γ-^33P] ATP (25 mCi ^33P ATP/mmol ATP, Perkin Elmer, Cambridge, Mass./Sigma Chemicals, St Louis, Mo.) and 27 μM Myelin Basic Protein (MBP). Final enzyme concentration in the assay was 5 nM ROCK. Assays were carried out at room temperature. 1.5 μl of DMSO stock containing serial dilutions of the compound of the present invention (concentrations ranging from 10 μM to 2.6 nM) was placed in a 96 well plate. 50 μl of Solution 1 (100 mM HEPES (pH 7.5), 10 mM MgCl2, […]) was added to the plate. The reaction was initiated by addition of 50 μl of Solution 2 (100 mM HEPES (pH 7.5), 10 mM MgCl2, 4 mM DTT, […] and 10 nM ROCK). After 2 hours the reaction was quenched with 50 μL of 30% trichloroacetic acid (TCA, Fisher) containing 9 mM ATP. Transfer of 140 μL of the quenched reaction to a glass fiber filter plate (Corning, Cat. No. 3511) was followed by washing 3 times with 5% TCA. 50 μL of Optima Gold scintillation fluid (Perkin Elmer) was added and the plates were counted on a Top Count (Perkin Elmer). After removing mean background values for all of the data points the data was fit using Prism software to obtain a Ki(app).
(§1) An assay stock buffer solution was prepared containing all of the reagents listed above with the exception of ATP and the test compound of interest. The assay stock buffer solution (60 μl) was incubated in a 96 well plate with 2 μl of the test compound of interest at final concentrations spanning 0.002 μM to 30 μM at 30° C. for 10 min. Typically, a 12 point titration was conducted by preparing serial dilutions (from 1 mM compound stocks) with DMSO of the test compounds in daughter plates. The reaction was initiated by the addition of 5 μl of ATP (final concentration 200 μM). Rates of reaction were obtained using a Molecular Devices Spectramax plate reader (Sunnyvale, Calif.) over 10 min at 30° C. The Ki values were determined from the rate data as a function of inhibitor concentration using computerized nonlinear regression (Prism 3.0, Graphpad Software, San Diego, Calif.). Aurora-C activity was screened in a similar manner using Aurora-C protein. Aurora-B activity was screened using a radioactive assay, such as described in Examples 1 and 2, but using Aurora-B protein.

ROCK I (AA 6-553) = biological target: T2, ROCK I (AA 6-553) (Homo sapiens, UniProt Q13464); experiment: ROCK inhibition assay, standard coupled enzyme system ("Enzyme"); conditions: enzyme-linked assay
T2 construct: ROCK I (AA 6-553)
T2 sequence (Q13464 6-553, species assumed): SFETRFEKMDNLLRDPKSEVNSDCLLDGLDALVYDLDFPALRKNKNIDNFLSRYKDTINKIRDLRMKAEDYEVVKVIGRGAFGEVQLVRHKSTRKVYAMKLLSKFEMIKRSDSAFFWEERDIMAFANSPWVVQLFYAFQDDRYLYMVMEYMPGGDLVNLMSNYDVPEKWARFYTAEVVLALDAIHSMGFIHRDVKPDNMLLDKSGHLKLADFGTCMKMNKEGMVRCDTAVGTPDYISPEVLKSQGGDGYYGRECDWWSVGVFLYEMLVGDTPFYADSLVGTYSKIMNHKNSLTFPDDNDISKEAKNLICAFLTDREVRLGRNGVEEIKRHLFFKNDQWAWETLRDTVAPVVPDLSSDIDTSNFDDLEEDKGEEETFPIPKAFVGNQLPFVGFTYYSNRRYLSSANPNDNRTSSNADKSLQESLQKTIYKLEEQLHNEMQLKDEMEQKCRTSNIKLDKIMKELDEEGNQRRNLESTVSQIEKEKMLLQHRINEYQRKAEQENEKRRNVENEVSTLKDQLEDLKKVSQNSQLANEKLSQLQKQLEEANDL
Procedure, shortened: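 ROCK I (AA 6-553) at 45 nM and 30 °C with 45 μM ATP and 200 μM peptide, in 100 mM HEPES pH 7.5, 10 mM MgCl2, 25 mM NaCl, 2 mM DTT, 1.5% DMSO. ADP output read by a PK/LDH coupled system: 2.5 mM PEP, 350 μM NADH, 30 μg/ml PK, 10 μg/ml LDH.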

Aurora-C = biological target: T3, Aurora-C (Homo sapiens, UniProt Q9UQB9); experiment: Aurora-C inhibition assay, coupled enzyme system as for Aurora-A; conditions: average Ki if more than one value determined
T3 sequence (Q9UQB9 1-309): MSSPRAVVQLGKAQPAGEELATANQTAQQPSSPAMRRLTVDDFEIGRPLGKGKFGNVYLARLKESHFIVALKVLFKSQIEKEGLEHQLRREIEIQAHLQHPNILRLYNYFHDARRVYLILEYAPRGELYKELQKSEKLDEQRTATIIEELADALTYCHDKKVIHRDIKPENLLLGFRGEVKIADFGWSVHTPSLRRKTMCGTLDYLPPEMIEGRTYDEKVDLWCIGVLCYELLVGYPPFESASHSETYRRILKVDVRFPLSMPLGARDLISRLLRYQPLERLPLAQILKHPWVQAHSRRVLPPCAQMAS
Protocol: Compounds were screened for their ability to inhibit full length Aurora-A (AA 1-403) activity using a standard coupled enzyme system (Fox et al., Protein Sci. 7, pp. 2249 (1998)). Reactions were carried out in a solution containing 100 mM HEPES (pH 7.5), 10 mM MgCl2, 25 mM NaCl, 300 μM NADH, 1 mM DTT and 3% DMSO. Final substrate concentrations in the assay were 200 μM ATP (Sigma Chemicals, St Louis, Mo.) and 800 μM peptide (LRRASLG, American Peptide, Sunnyvale, Calif.). Reactions were carried out at 30° C. and 35 nM Aurora-A. Final concentrations of the components of the coupled enzyme system were 2.5 mM phosphoenolpyruvate, 200 μM NADH, 60 μg/ml pyruvate kinase and 20 μg/ml lactate dehydrogenase.
as §1

Row | Structure (SMILES) | Ki [1] [µM] | Ki (Aurora-B) [µM] | Ki (ROCK I (AA 6-553)) [µM] | Ki (Aurora-C) [µM]
1 | Clc1ccc(CNc2ccnc(-c3c[nH]c4ncc(Cl)cc34)n2)cc1 [Compound 237] | < 0.5 | < 0.5 | 0.5 to 5 | < 0.5
2 | Fc1cnc(-c2c[nH]c3ncc(Cl)cc23)nc1NCc1ccc(Cl)cc1 [Compound 238] | < 0.5 | < 0.5 | 0.5 to 5 | < 0.5
3 | Clc1ccc(CNc2cccc(-c3c[nH]c4ncc(Cl)cc34)n2)cc1 [Compound 242] | < 0.5 | 0.5 to 5 | 0.5 to 5 | < 0.5
4 | C[C@H](Nc1nc(-c2c[nH]c3ncc(Cl)cc23)ncc1F)c1ccc(F)cc1 [Compound 285] | < 0.5 | < 0.5 | 0.5 to 5 | < 0.5

Next, values leading:

Row | Ki [1] [µM] | Ki (Aurora-B) [µM] | Ki (ROCK I (AA 6-553)) [µM] | Ki (Aurora-C) [µM] | Structure (SMILES)
5 | < 0.5 | 0.5 to 5 | 0.5 to 5 | 0.5 to 5 | Clc1cnc2[nH]cc(-c3cccc(NC4CCCCC4)n3)c2c1 [Compound 290]
6 | < 0.5 | < 0.5 | 0.5 to 5 | < 0.5 | C[C@H](Nc1nc(-c2c[nH]c3ncc(Cl)cc23)ncc1F)c1cccc(O)c1 [Compound 306]
7 | < 0.5 | < 0.5 | 0.5 to 5 | < 0.5 | Fc1cnc(-c2c[nH]c3ncc(Cl)cc23)nc1NCc1cccc(Cl)c1 [Compound 312]
8 | < 0.5 | < 0.5 | 0.5 to 5 | < 0.5 | Fc1cnc(-c2c[nH]c3ncc(Cl)cc23)nc1NCc1ccccn1 [Compound 316]
9 | < 0.5 | < 0.5 | 0.5 to 5 | < 0.5 | Fc1cnc(-c2c[nH]c3ncc(Cl)cc23)nc1NCc1cccnc1 [Compound 317]

— patent US8501446B2 (Vertex Pharmaceuticals Incorporated, priority 2004, dated 2013)
